Test results as given in patent US11413254B2, “Application for (2R, 4R)-1,2,4-trihydroxyheptadec-16-yne in preparation of pharmaceutical composition for preventing or treating hepatic injury” (KAOHSIUNG MEDICAL UNIVERSITY, priority 2016, dated 2022).

Experiments:
[1] = tested on: fatty acid liver disease induced by high fat feed; experiment: Serum triglyceride level of mice with fatty acid liver disease induced by high fat feed; type: in vivo, C57BL/6 (B6) mice; settings: male B6 mice, 100 mg/kg/day TY force fed, high fat feed (60% fat calorie) 18 weeks, FIG. 6
Source text: Example 6. TY decreased serum triglyceride level of the mice with fatty acid liver disease induced by high fat feed. 15 male, 8-10 weeks old of C57BL/6 (B6) mice (20-22 g) were randomly divided into 3 groups, 4-5 B6 mice in each group, and they were: 1. Healthy control group: fed with normal feed (the percentage of fat calories 5-6%); 2. Negative control group: fed with high fat feed (the percentage of fat calorie 60%) and force fed with physiological saline (high fat feed and physiological saline); 3. Experimental group: animals were given the same high fat feed as the Negative control group and force fed with 100 mg/kg/day of TY (high fat feed and TY). 1 week before liver injury was induced by the high fat feed, the experimental samples began to be given daily, respectively, drug solvent of the same volume as TY to Groups 1 and 2, and 100 mg/kg of TY daily to Group 3. after 1 week, Groups 2 and 3 began to be given high fat feed, and continuously to be force fed with the drug solvent of the same volume as TY and 100 mg/kg/day of TY for 18 weeks. The mice began to fast on the 18th week, and 12 hours after fasting, all B6 mice were sacrificed. Prior to being sacrificed, blood was collected from the heart and serum was separated for analysis of the serum triglyceride level.

[2] = tested on: acute hepatitis caused by carbon tetrachloride; experiment: Acute hepatitis caused by carbon tetrachloride, serum liver function indicators; type: in vivo; settings: male Wistar rats, 100 mg/kg/day TY force fed, 20% carbon tetrachloride/olive oil i.p. on fourth day
Experimental: Example 1. The effect of TY for the treatment of acute hepatitis caused by carbon tetrachloride was tested. Nine male Wistar rats (200-250 g) were randomly divided into 3 groups, 3 Wistar rats in each group, they were: 1. Healthy control group: force fed with drug solvent and intraperitoneal injection of olive oil (2.5 mg/kg) of the same volume as TY; 2. Negative control group (carbon tetrachloride and physiological saline): force fed with physiological saline and intraperitoneal injection of 20% carbon tetrachloride/olive oil of the same volume as TY; 3. Experimental group (carbon tetrachloride and 100 mg/kg/day of TY): force fed 100 mg/kg/day of TY and intraperitoneal injection of 20% carbon tetrachloride/olive oil. First, the drug solvent or TY was administered by force feeding once daily and the first force feeding was defined as the first day. One hour after force feeding on the fourth day, Group 1 was given intraperitoneal injection of olive oil (2.5 mg/kg), Groups 2-3 were given intraperitoneal injection of 20% carbon tetrachloride/olive oil (2.5 mg/kg), fasted 12 hours after injection, all Wistar rats were sacrificed 12 hours after fasting. Prior to being sacrificed, blood was collected from the heart and serum was separated for analysis of the biochemical function of the liver.

[3] = tested on: fatty acid liver disease caused by high fat feed; experiment: Chronic hepatitis of fatty acid liver disease caused by high fat feed, serum liver function indicators; type: in vivo, C57BL/6 (B6) mice; settings: male B6 mice, 100 mg/kg/day TY force fed, high fat feed (60% fat calorie) 18 weeks
Experimental: Example 5. Chronic hepatitis of fatty acid liver disease caused by high fat feed was treated by TY. 15 male, 8-10 weeks old of C57BL/6 (B6) mice (20-22 g) were randomly divided into 3 groups, 4-5 B6 mice in each group, they were: 1. Healthy control group: fed with normal feed (the percentage of fat calories 5-6%); 2. Negative control group: fed with high fat feed (the percentage of fat calorie 60%) and physiological saline; 3. Experimental group: animals were given the same high fat feed as the Negative control group and force fed with 100 mg/kg/day of TY. 1 week before liver injury was induced by high fat feed, the experimental samples began to be given daily, respectively, drug solvent of the same volume as TY to Groups 1 and 2, and 100 mg/kg/daily of TY to Group 3. After 1 week, Groups 2 and 3 began to be given high fat feed, and continuously to be force fed with the drug solvent of the volume same as TY and 100 mg/kg/day of TY for 18 weeks. The mice began to fast on the 18th week, and 12 hours after fasting, all B6 mice were sacrificed. Prior to being sacrificed, blood was collected from the heart and serum was separated for analysis of the biochemical function of the liver.

[4] = tested on: acute hepatitis caused by alcohol (ethanol); experiment: Acute hepatitis caused by alcohol (ethanol), serum liver function indicators; type: in vivo; settings: male Wistar rats, 100 mg/kg/day TY force fed, 50% ethanol
Experimental: Example 3. The effect of TY on the treatment of acute hepatitis caused by alcohol (ethanol). Nine male Wistar rats (200-250 g) were randomly divided into 3 groups, 3 Wistar rats in each group, they were: 1. Healthy control group: force fed with physiological saline (2.5 mg/kg) of the same volume as TY; 2. Negative control group (ethanol and physiological saline): force fed with physiological saline of the same volume as TY and force fed with 50% ethanol; 3. Experimental group (ethanol and 100 mg/kg/day of TY): force fed 100 mg/kg/day of TY and force fed with 50% ethanol. First, the drug solvent or TY was administered by force feeding once daily, and the first force feeding was defined as the first day. One hour after force feeding on the fourth day, Group 1 was given physiological saline (2.5 mg/kg), Groups 2-3 were given […] 50% ethanol (2.5 mg/kg), respectively. The rats were force fed with ethanol again 12 hours after the first force feeding, and fasted 12 hours after the second force feeding. After being fasted for 12 hours, all Wistar rats were sacrificed. Prior to being sacrificed, blood was collected from the heart and serum was separated for analysis of the biochemical function of the liver.

[5] = tested on: hepatocellular injury and abnormalities caused by alcohol (ethanol); experiment: Hepatocellular injury and abnormalities caused by alcohol (ethanol), liver H&E staining; type: in vivo; settings: male Wistar rats, 100 mg/kg/day TY force fed, 50% ethanol, FIG. 4
Experimental: Example 4. Hepatocellular injury and abnormalities caused by alcohol (ethanol) were treated by TY. Nine male Wistar rats (200-250 g) were randomly divided into 3 groups, 3 Wistar rats in each group, they were: 1. Healthy control group: force fed with drug solvent of the same volume as TY and force fed with physiological saline (2.5 mg/kg); 2. Negative control group (ethanol and physiological saline): force fed with physiological saline of the same volume as TY and force fed with 50% ethanol; 3. Experimental group (Ethanol and 100 mg/kg/day of TY): force fed 100 mg/kg/day of TY and force fed with 50% ethanol. First, food solvent or TY was administered by force feeding once daily, and the first force feeding was defined as the first day. One hour after force feeding on the fourth day, Group 1 was given physiological saline (2.5 mg/kg), Groups 2-3 were given 50% ethanol injection (2.5 mg/kg), respectively. The rats were force fed with ethanol again 12 hours after the first force feeding, and fasted 12 hours after the second force feeding. After being fasted for 12 hours, all Wistar rats were sacrificed. After the rats were sacrificed, livers were collected and soaked in formalin, and stained with H&E staining, then observed and images taken with a microscope.

[6] = tested on: hepatocellular injury and necrosis caused by carbon tetrachloride; experiment: Hepatocellular injury and necrosis caused by carbon tetrachloride, liver H&E staining; type: in vivo; settings: male Wistar rats, 100 mg/kg/day TY force fed, 20% carbon tetrachloride/olive oil i.p., FIG. 2
Experimental: Example 2. Hepatocellular injury and necrosis caused by carbon tetrachloride were treated by TY. Nine male Wistar rats (200-250 g) were randomly divided into 3 groups, 3 Wistar rats in each group, they were: 1. Healthy control group: force fed with drug solvent of the same volume as TY and intraperitoneal injection of olive oil (2.5 mg/kg); 2. Negative control group (carbon tetrachloride and physiological saline): force fed with physiological saline and intraperitoneal injection of 20% carbon tetrachloride/olive oil of the same volume as TY; 3. Experimental group (carbon tetrachloride and 100 mg/kg/day of TY): force fed 100 mg/kg/day of TY and intraperitoneal injection of 20% carbon tetrachloride/olive oil. First, the physiological saline or TY was administered by force feeding once daily, and the first force feeding was defined as the first day. One hour after the force feeding on the fourth day, Group 1 was given intraperitoneal injection of olive oil (2.5 mg/kg), Groups 2-3 were given intraperitoneal injection of 20% carbon tetrachloride/olive oil (2.5 mg/kg), respectively. The rats were fasted 12 hours after injection, all Wistar rats were sacrificed 12 hours after fasting. After the rats were sacrificed, livers were collected and soaked in formalin, and stained with H&E staining, then observed and images were taken with a microscope.

[7] = tested on: fatty acid disease induced by high fat feed; experiment: Hepatocellular injury and abnormalities of fatty acid disease induced by high fat feed, liver H&E staining; type: in vivo, C57BL/6 (B6) mice; settings: male B6 mice, 100 mg/kg/day TY force fed, high fat feed (60% fat calorie) 18 weeks, FIG. 7
Experimental: Example 7. Hepatocellular injury and abnormalities of fatty acid disease induced by high fat feed were treated with TY. 15 male, 8-10 weeks old of C57BL/6 (B6) mice (20-22 g) were randomly divided into 3 groups, and 4-5 B6 mice in each group, they were: 1. Healthy control group: fed with normal feed (the percentage of fat calories 5-6%); 2. Negative control group: fed with high fat feed (the percentage of fat calorie 60%) and force fed with physiological saline; 3. Experimental group: animals were given the same high fat feed as the Negative control group and force fed with 100 mg/kg/day of TY (high fat feed and TY). 1 week before liver injury was induced by the high fat feed, the experimental samples began to be given daily, respectively, the drug solvent of the same volume as TY to Groups 1 and 2, and 100 mg/kg of TY daily to Group 3. After 1 week, Groups 2 and 3 began to be given high fat feed, and continuously to be force fed with the drug solvent of the same volume as TY and 100 mg/kg/day of TY for 18 weeks. The mice began to fast on the 18th week, and 12 hours after fasting, all B6 mice were sacrificed. After the mice were sacrificed, livers were collected and soaked in formalin, stained with H&E staining, and then observed and images taken with a microscope.

`C#CCCCCCCCCCCC[C@@H](O)C[C@@H](O)CO` [TY, (2R,4R)-1,2,4-trihydroxy heptadec-16-yne] was tested, and the “serum triglyceride level increased by the high-fat diet” value [1] was “significantly decreased”, the “liver function indicator GOT/AST increased by carbon tetrachloride” value ([2]; FIG. 1A) was “significantly decreased” and the “liver function indicator GPI/ALT increased by carbon tetrachloride” value ([2]; FIG. 1B) was “significantly decreased”. The “liver function indicator GOT/AST increased by the high-fat feed” value ([3]; FIG. 5A) was “significantly decreased”, the “liver function indicator GPT/ALT increased by the high-fat feed” value ([3]; FIG. 5B) was “significantly decreased” and the “liver function indicator GOT/AST increased by ethanol” value ([4]; FIG. 3A) was “significantly decreased”. The “liver function indicator GPI/ALT increased by ethanol” value ([4]; FIG. 3B) was “significantly decreased”, the “liver injury and tissue abnormalities caused by ethanol (H&E staining)” value [5] was “capable of reducing the liver injury and tissue abnormalities” and the “hepatocellular necrosis near the central vein caused by carbon tetrachloride (H&E staining)” value [6] was “capable of effectively reducing hepatocellular necrosis near the central vein”. The “liver injury and tissue abnormalities caused by the high fat feed (H&E staining)” value [7] was “capable of reducing the liver injury and tissue abnormalities”.
